In patent publication US7750003B2, “Compounds-943” (AstraZeneca AB, priority 2006, dated 2010) one finds IC50 data, which are given here for 32 compounds.

Molecules are shown by their SMILES.

recombinant mTOR (FLAG-tagged, residues 1362-2549), sequence (P42345 1362-2549): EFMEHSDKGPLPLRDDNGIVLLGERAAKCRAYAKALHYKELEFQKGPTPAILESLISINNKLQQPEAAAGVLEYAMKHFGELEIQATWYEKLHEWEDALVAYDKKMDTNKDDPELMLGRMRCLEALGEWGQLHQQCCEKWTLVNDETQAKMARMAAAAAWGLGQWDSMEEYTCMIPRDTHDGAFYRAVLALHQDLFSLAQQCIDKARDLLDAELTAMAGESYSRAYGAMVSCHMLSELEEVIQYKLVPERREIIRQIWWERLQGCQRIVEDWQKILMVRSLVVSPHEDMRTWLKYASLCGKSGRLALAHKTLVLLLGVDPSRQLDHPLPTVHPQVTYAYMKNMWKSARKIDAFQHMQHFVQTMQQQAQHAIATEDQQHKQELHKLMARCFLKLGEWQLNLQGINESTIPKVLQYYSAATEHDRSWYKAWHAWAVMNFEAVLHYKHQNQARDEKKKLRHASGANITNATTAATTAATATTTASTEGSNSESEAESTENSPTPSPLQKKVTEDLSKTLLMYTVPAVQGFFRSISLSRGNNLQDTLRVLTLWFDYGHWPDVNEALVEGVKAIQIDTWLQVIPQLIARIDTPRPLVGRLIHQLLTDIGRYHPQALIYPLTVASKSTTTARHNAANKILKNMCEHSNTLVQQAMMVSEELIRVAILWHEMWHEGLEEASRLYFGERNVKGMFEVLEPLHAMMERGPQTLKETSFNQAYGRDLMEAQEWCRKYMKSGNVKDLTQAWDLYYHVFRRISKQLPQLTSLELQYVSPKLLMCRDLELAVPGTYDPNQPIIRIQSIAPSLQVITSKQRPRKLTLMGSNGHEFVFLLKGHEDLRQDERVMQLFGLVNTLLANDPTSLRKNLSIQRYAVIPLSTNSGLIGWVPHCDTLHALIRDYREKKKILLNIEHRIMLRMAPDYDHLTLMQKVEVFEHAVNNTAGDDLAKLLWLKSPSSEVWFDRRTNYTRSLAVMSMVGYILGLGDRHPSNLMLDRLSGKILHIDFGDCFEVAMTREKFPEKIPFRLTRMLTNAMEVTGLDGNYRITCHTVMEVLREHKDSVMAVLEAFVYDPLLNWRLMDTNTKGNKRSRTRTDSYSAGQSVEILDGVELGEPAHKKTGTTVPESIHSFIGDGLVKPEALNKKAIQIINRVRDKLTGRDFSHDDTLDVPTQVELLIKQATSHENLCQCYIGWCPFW

The assay addresses recombinant mTOR (FLAG-tagged, residues 1362-2549) (Homo sapiens, UniProt P42345). As to the kind of experiment: In vitro mTOR kinase assay (Test (a), AlphaScreen). It counts as biochemical. The note with it: ATP 20 μM, read-out: Test (a): IC50 versus mTOR kinase. An outline of the steps: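 AlphaScreen read-out: a phospho-T389 p70 S6K antibody on acceptor beads captures the phosphorylated biotin-peptide on donor beads, with signal loss indicating inhibition.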
What is called IC50 is the concentration that inhibits the measured activity by half. Take `CCNC(=O)Nc1ccc(-c2nc(CS(C)(=O)=O)cc(N3CCOC[C@@H]3C)n2)cc1OC` [Example 3a, 1-ethyl-3-[2-methoxy-4-[4-[(3S)-3-methylmorpholin-4-yl]-6-(methylsulfonylmethyl)pyrimidin-2-yl]phenyl]urea]: the 50% inhibitory concentration (IC50) was determined as 100 nM. Regarding `Cc1cnc(CNC(=O)Nc2ccc(-c3nc(CS(C)(=O)=O)cc(N4CCOC[C@@H]4C)n3)cc2)cn1` [Example 24c, 3-[4-[4-[(3S)-3-methylmorpholin-4-yl]-6-(methylsulfonylmethyl)pyrimidin-2-yl]phenyl]-1-[(5-methylpyrazin-2-yl)methyl]urea], the IC50 worked out at 560 nM. The same measure for `C[C@H]1COCCN1c1cc(CNC2CC2)nc(-c2ccc(NC(=O)Nc3ccccc3)cc2)n1` [Example 30b, 1-[4-[4-[(cyclopropylamino)methyl]-6-[(3S)-3-methylmorpholin-4-yl]pyrimidin-2-yl]phenyl]-3-phenyl-urea]: 180 nM; for `C[C@H]1COCCN1c1cc(CS(C)(=O)=O)nc(-c2ccc(NC(=O)N(C)C3CC3)cc2)n1` [Example 35m, 1-cyclopropyl-1-methyl-3-[4-[4-[(3S)-3-methylmorpholin-4-yl]-6-(methylsulfonylmethyl)pyrimidin-2-yl]phenyl]urea]: 2000 nM; for `C[C@H]1COCCN1c1cc(CS(C)(=O)=O)nc(-c2ccc(NC(=O)N(C)C)cc2)n1` [Example 2b, 1,1-dimethyl-3-[4-[4-[(3S)-3-methylmorpholin-4-yl]-6-(methylsulfonylmethyl)pyrimidin-2-yl]phenyl]urea]: 290 nM.

For the compound `CNC(=O)Nc1ccc(-c2nc(CS(=O)(=O)CCO)cc(N3CCOC[C@@H]3C)n2)cc1` [Example 19e, 1-[4-[4-(2-hydroxyethylsulfonylmethyl)-6-[(3S)-3-methylmorpholin-4-yl]pyrimidin-2-yl]phenyl]-3-methyl-urea], the IC50 was found to be 11 nM. With `C[C@H]1COCCN1c1cc(CS(C)(=O)=O)nc(-c2ccc(NC(=O)N3CCOCC3)cc2)n1` [Example 35d, N-[4-[4-[(3S)-3-methylmorpholin-4-yl]-6-(methylsulfonylmethyl)pyrimidin-2-yl]phenyl]morpholine-4-carboxamide] the figure was 3200 nM; with `C[C@H]1COCCN1c1cc(C(C)(C)S(C)(=O)=O)nc(-c2ccc(NC(=O)Nc3ccon3)cc2)n1` [Example 24s, 1-[4-[4-[(3S)-3-methylmorpholin-4-yl]-6-(2-methylsulfonylpropan-2-yl)pyrimidin-2-yl]phenyl]-3-(1,2-oxazol-3-yl)urea], 4.7 nM. With `COCCN(C)C(=O)Nc1ccc(-c2nc(CS(C)(=O)=O)cc(N3CCOC[C@@H]3C)n2)cc1F` [Example 4f, 3-[2-Fluoro-4-[4-[(3S)-3-methylmorpholin-4-yl]-6-(methylsulfonylmethyl)pyrimidin-2-yl]phenyl]-1-(2-methoxyethyl)-1-methyl-urea] the figure was 680 nM. With `CCNC(=O)Nc1ccc(-c2nc(N3CCOCC3)cc(C(C)(C)S(C)(=O)=O)n2)cc1` [Example 21a, 1-ethyl-3-[4-[4-(2-methylsulfonylpropan-2-yl)-6-morpholin-4-yl-pyrimidin-2-yl]phenyl]urea] the figure was 730 nM; with `C[C@H]1COCCN1c1cc(CN2CCN(C)CC2)nc(-c2ccc(NC(=O)Nc3ccccc3)cc2)n1` [Example 30a, 1-[4-[4-[(3S)-3-methylmorpholin-4-yl]-6-[(4-methylpiperazin-1-yl)methyl]pyrimidin-2-yl]phenyl]-3-phenyl-urea], 120 nM; with `CNC(=O)NC1CCN(c2nc(CS(C)(=O)=O)cc(N3CCOC[C@@H]3C)n2)CC1` [Example 23, 3-Methyl-1-[1-[4-[(3S)-3-methylmorpholin-4-yl]-6-(methylsulfonylmethyl)pyrimidin-2-yl]-4-piperidyl]urea], 5600 nM.

Regarding `CNC(=O)Nc1ccc(-c2nc(CS(=O)(=O)CCNC(C)=O)cc(N3CCOC[C@@H]3C)n2)cc1` [Example 26b, N-[2-[[2-[4-(methylcarbamoylamino)phenyl]-6-[(3S)-3-methylmorpholin-4-yl]pyrimidin-4-yl]methylsulfonyl]ethyl]acetamide], the IC50 was found to be 41 nM. The same measure for `C[C@H]1COCCN1c1cc(CS(=O)(=O)c2ccccc2)nc(-c2ccc(NC(=O)N(C)C)cc2)n1` [Example 15, 3-[4-[4-(Benzenesulfonylmethyl)-6-[(3S)-3-methylmorpholin-4-yl]pyrimidin-2-yl]phenyl]-1,1-dimethyl-urea]: 1000 nM; for `CN(C)CCNC(=O)Nc1ccc(-c2nc(CS(C)(=O)=O)cc(N3CCOCC3)n2)cc1` [Example 45j, 1-(2-dimethylaminoethyl)-3-[4-[4-(methylsulfonylmethyl)-6-morpholin-4-yl-pyrimidin-2-yl]phenyl]urea]: 720 nM. With `CC(C)CNC(=O)Nc1ccc(-c2nc(CS(C)(=O)=O)cc(N3CCOCC3)n2)cc1` [Example 45b, 1-(2-methylpropyl)-3-[4-[4-(methylsulfonylmethyl)-6-morpholin-4-yl-pyrimidin-2-yl]phenyl]urea] the figure was 120 nM. `CCOCCNC(=O)Nc1ccc(-c2nc(CS(C)(=O)=O)cc(N3CCOCC3)n2)cc1` [Example 45s, 1-(2-ethoxyethyl)-3-[4-[4-(methylsulfonylmethyl)-6-morpholin-4-yl-pyrimidin-2-yl]phenyl]urea]: the IC50 was 300 nM.

With `CCc1cccc(NC(=O)Nc2ccc(-c3nc(CS(C)(=O)=O)cc(N4CCOCC4)n3)cc2)c1` [Example 7o, 1-(3-ethylphenyl)-3-[4-[4-(methylsulfonylmethyl)-6-morpholin-4-yl-pyrimidin-2-yl]phenyl]urea], the IC50 stood at 1700 nM. For `C[C@H]1COCCN1c1cc(CS(C)(=O)=O)nc(-c2ccc(NC(=O)NCc3cccc(N(C)C)c3)cc2)n1` [Example 24i, 3-[(3-dimethylaminophenyl)methyl]-1-[4-[4-[(3S)-3-methylmorpholin-4-yl]-6-(methylsulfonylmethyl)pyrimidin-2-yl]phenyl]urea], the IC50 is 330 nM. The same measure for `C[C@H]1COCCN1c1cc(CN(C)C2CC2)nc(-c2ccc(NC(=O)NCc3cnn(C)c3)cc2)n1` [Example 52b, 1-[4-[4-[(cyclopropyl-methyl-amino)methyl]-6-[(3S)-3-methylmorpholin-4-yl]pyrimidin-2-yl]phenyl]-3-[(1-methylpyrazol-4-yl)methyl]urea]: 570 nM; for `CNC(=O)Nc1ccc(-c2nc(CS(=O)(=O)c3ccccc3)cc(N3CCOC[C@@H]3C)n2)cc1` [Example 19a, 1-[4-[4-(benzenesulfonylmethyl)-6-[(3S)-3-methylmorpholin-4-yl]pyrimidin-2-yl]phenyl]-3-methyl-urea]: 4.7 nM; for `Cc1cc(C)cc(NC(=O)Nc2ccc(-c3nc(CS(C)(=O)=O)cc(N4CCOCC4)n3)cc2)c1` [Example 7d, 1-(3,5-dimethylphenyl)-3-[4-[4-(methylsulfonylmethyl)-6-morpholin-4-yl-pyrimidin-2-yl]phenyl]urea]: 2600 nM. The same measure for `Cn1ccc(NC(=O)Nc2ccc(-c3nc(CS(C)(=O)=O)cc(N4CCOCC4)n3)cc2)n1` [Example 34c, 1-(1-methylpyrazol-3-yl)-3-[4-[4-(methylsulfonylmethyl)-6-morpholin-4-yl-pyrimidin-2-yl]phenyl]urea]: 720 nM. The same measure for `C[C@H]1COCCN1c1cc(CN2CCOCC2)nc(-c2ccc(NC(=O)Nc3ccccc3)cc2)n1` [Example 27, 1-[4-[4-[(3S)-3-Methylmorpholin-4-yl]-6-(morpholin-4-ylmethyl)pyrimidin-2-yl]phenyl]-3-phenyl-urea]: 190 nM. For `CCNC(=O)Nc1c(F)cc(-c2nc(N3CCOC[C@@H]3C)cc(C(C)(C)S(C)(=O)=O)n2)cc1F` [Example 24ac, 3-[2,6-difluoro-4-[4-[(3S)-3-methylmorpholin-4-yl]-6-(2-methylsulfonylpropan-2-yl)pyrimidin-2-yl]phenyl]-1-ethyl-urea], the half-maximal inhibitory concentration (IC50) was 48 nM. For `C[C@H]1COCCN1c1cc(CS(C)(=O)=O)nc(-c2ccc(NC(=O)NCCc3c[nH]cn3)cc2)n1` [Example 24b, 3-[2-(1H-imidazol-4-yl)ethyl]-1-[4-[4-[(3S)-3-methylmorpholin-4-yl]-6-(methylsulfonylmethyl)pyrimidin-2-yl]phenyl]urea], the half-inhibitory concentration (IC50) was 38 nM. The same measure for `CC(C)(C)CNC(=O)Nc1ccc(-c2nc(CS(C)(=O)=O)cc(N3CCOCC3)n2)cc1` [Example 45p, 1-(2,2-dimethylpropyl)-3-[4-[4-(methylsulfonylmethyl)-6-morpholin-4-yl-pyrimidin-2-yl]phenyl]urea]: 920 nM. `C[C@H]1COCCN1c1cc(CS(=O)(=O)CC(N)=O)nc(-c2ccc(NC(=O)NC3CC3)cc2)n1` [Example 43h, 2-[[2-[4-(cyclopropylcarbamoylamino)phenyl]-6-[(3S)-3-methylmorpholin-4-yl]pyrimidin-4-yl]methylsulfonyl]acetamide]: the IC50 worked out at 7.1 nM. In the case of `COCCCNC(=O)Nc1ccc(-c2nc(CS(C)(=O)=O)cc(N3CCOCC3)n2)cc1` [Example 45c, 1-(3-methoxypropyl)-3-[4-[4-(methylsulfonylmethyl)-6-morpholin-4-yl-pyrimidin-2-yl]phenyl]urea], the IC50 was 82 nM. The same measure for `CCNC(=O)Nc1ccc(-c2nc(CO)cc(N3CCOC[C@@H]3C)n2)cc1` [Example 5, 1-Ethyl-3-[4-[4-(hydroxymethyl)-6-[(3S)-3-methylmorpholin-4-yl]pyrimidin-2-yl]phenyl]urea]: 63 nM. The same measure for `CC(=O)NCCNC(=O)Nc1ccc(-c2nc(CS(C)(=O)=O)cc(N3CCOCC3)n2)cc1` [Example 8b, N-[2-[[4-[4-(methylsulfonylmethyl)-6-morpholin-4-yl-pyrimidin-2-yl]phenyl]carbamoylamino]ethyl]acetamide]: 420 nM.

Turning to `CC(=O)NCCS(=O)(=O)Cc1cc(N2CCOC[C@@H]2C)nc(-c2ccc(NC(=O)NCc3cnn(C)c3)cc2)n1` [Example 53, N-[2-[[6-[(3S)-3-methylmorpholin-4-yl]-2-[4-[(1-methylpyrazol-4-yl)methylcarbamoylamino]phenyl]pyrimidin-4-yl]methylsulfonyl]ethyl]acetamide], the IC50 was 640 nM.
